According to patent US6355799B1, “Substituted benzene compounds, process for their preparation, and herbicidal and defoliant compositions containing them” (ISK Americas Incorporated, priority 1997, dated 2002):

How the values were obtained:
Assay type in all cases: in vivo
[1] = test system: ivyleaf morningglory (Ipomoea hederacea, IPOHE); experiment: Pre-emerge test, greenhouse herbicide activity screening; conditions: pre-emerge, 14 days after application, scale 0-100
Procedure, shortened: (§1)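 Applied at 15–1000 g ai/ha from acetone in 187 l/ha spray volume. Post-emergence applications included 0.25% v/v non-ionic surfactant and reached plants sown 8–21 days before. Pre-emergence applications were incorporated by surface watering. Efficacy or crop damage was rated on a 0–100 scale after 14 days.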

[2] = test system: johnsongrass (Sorghum halepense, SORHA); experiment: as above; conditions: pre-emerge, 14 days after application, scale 0-100
Procedure, shortened: as §1

[3] = test system: lambsquarters (Chenopodium album, CHEAL); experiment: as above; conditions: pre-emerge, 14 days after application, scale 0-100
Procedure, shortened: as §1

[4] = test system: velvetleaf (Abutilon theophrasti, ABUTH); experiment: as above; conditions: pre-emerge, 14 days after application, scale 0-100
Procedure, shortened: as §1

[5] = test system: green foxtail (Setaria viridis, SETVI); experiment: as above; conditions: pre-emerge, 14 days after application, scale 0-100
Procedure, shortened: as §1

[6] = test system: barnyardgrass (Echinochloa crus-galli, ECHCG); experiment: as above; conditions: pre-emerge, 14 days after application, scale 0-100
Procedure, shortened: as §1

[7] = test system: large crabgrass (Digitaria sanguinalis, DIGSA); experiment: as above; conditions: pre-emerge, 14 days after application, scale 0-100
Procedure, shortened: as §1

[8] = test system: sicklepod (Cassia obtusifolia, CASOB); experiment: as above; conditions: pre-emerge, 14 days after application, scale 0-100
Procedure, shortened: as §1

[9] = test system: redroot pigweed (Amaranthus retroflexus, AMARE); experiment: as above; conditions: pre-emerge, 14 days after application, scale 0-100
Procedure, shortened: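 Rating: 0–100 visual injury, 14 DAA. Application: acetone, 187 l/ha, 15–1000 g ai/ha, flat-fan track sprayer with nozzle 40–45 cm above soil or canopy. Post-emerge runs used 0.25% v/v surfactant on 2–3 leaf plants.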

[10] = test system: upland rice (Oryza sp., var. Tebonnet, RICE); experiment: Post-emerge test, crop safety; conditions: post-emerge, 14 days after application, rating scale 0-100
Procedure, shortened: as §1

[11] = test system: field corn (Zea mays L., var. Dekalb 535, CORN); experiment: Post-emerge test, crop safety; conditions: post-emerge, 14 days after application, rating scale 0-100
Procedure, shortened: as §1

[12] = test system: ivyleaf morningglory (Ipomoea hederacea, IPOHE); experiment: Post-emerge test, greenhouse herbicide activity screening; conditions: post-emerge, 14 days after application, rating scale 0-100
Procedure, shortened: (§2)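 Sandy loam pots; pre-emerge: sown 1 d pre-spray, surface-watered after, then bottom-watered. Post-emerge: sown 8–21 d before, 2–3 leaf stage, + 0.25% v/v NIS, bottom-watered. Acetone, 187 l/ha track spray, 15–1000 g ai/ha. 0–100 injury score, day 14.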

[13] = test system: johnsongrass (Sorghum halepense, SORHA); experiment: as above; conditions: post-emerge, 14 days after application, rating scale 0-100
Procedure, shortened: as §2

[14] = test system: lambsquarters (Chenopodium album, CHEAL); experiment: as above; conditions: post-emerge, 14 days after application, rating scale 0-100
Procedure, shortened: as §2

[15] = test system: velvetleaf (Abutilon theophrasti, ABUTH); experiment: as above; conditions: post-emerge, 14 days after application, rating scale 0-100
Procedure, shortened: as §2

[16] = test system: green foxtail (Setaria viridis, SETVI); experiment: as above; conditions: post-emerge, 14 days after application, rating scale 0-100
Procedure, shortened: as §2

[17] = test system: barnyardgrass (Echinochloa crus-galli, ECHCG); experiment: as above; conditions: post-emerge, 14 days after application, rating scale 0-100
Procedure, shortened: as §2

[18] = test system: large crabgrass (Digitaria sanguinalis, DIGSA); experiment: as above; conditions: post-emerge, 14 days after application, rating scale 0-100
Procedure, shortened: as §2

[19] = test system: sicklepod (Cassia obtusifolia, CASOB); experiment: as above; conditions: post-emerge, 14 days after application, rating scale 0-100
Procedure, shortened: as §2

[20] = test system: redroot pigweed (Amaranthus retroflexus, AMARE); experiment: as above; conditions: post-emerge, 14 days after application, rating scale 0-100
Procedure, shortened: as §2

[21] = test system: upland rice (Oryza sp., var. Tebonnet, RICE); experiment: Pre-emerge test, crop safety; conditions: pre-emerge, 14 days after application, scale 0-100
Procedure, shortened: (§3)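 Visual ratings on a 0-100 scale (0 no damage, 100 all plants dead) were taken at 14 days after treatment. Rates of 15-1000 g ai/ha in acetone, 187 l/ha, were sprayed onto soil one day after planting (pre-emerge) or onto 2-3 leaf plants with 0.25% v/v surfactant (post-emerge).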

[22] = test system: field corn (Zea mays L., var. Dekalb 535, CORN); experiment: Pre-emerge test, crop safety; conditions: pre-emerge, 14 days after application, scale 0-100
Procedure, shortened: as §3

With `COc1c(Cl)cc(F)c(-n2c(=O)cc(C(F)(F)F)n(C)c2=O)c1NC(=O)c1cc2ccccc2cc1C` [2-155] the “phytotoxicity rating IPOHE” value ([1]; 63 g ai/ha) was 0, the “phytotoxicity rating IPOHE” value ([1]; 125 g ai/ha) was 40 and the “phytotoxicity rating SORHA” value ([2]; 63 g ai/ha) was 30. For the same molecule, the “phytotoxicity rating SORHA” value ([2]; 125 g ai/ha) was 70, the “phytotoxicity rating CHEAL” value ([3]; 63 g ai/ha) was 100 and the “phytotoxicity rating CHEAL” value ([3]; 125 g ai/ha) was 100. For the same molecule, the “phytotoxicity rating ABUTH” value ([4]; 63 g ai/ha) was 100, the “phytotoxicity rating ABUTH” value ([4]; 125 g ai/ha) was 100 and the “phytotoxicity rating SETVI” value ([5]; 63 g ai/ha) was 60. The “phytotoxicity rating SETVI” value ([5]; 125 g ai/ha) was 95, the “phytotoxicity rating ECHCG” value ([6]; 63 g ai/ha) was 50 and the “phytotoxicity rating ECHCG” value ([6]; 125 g ai/ha) was 70. For the same molecule, the “phytotoxicity rating DIGSA” value ([7]; 63 g ai/ha) was 85, the “phytotoxicity rating DIGSA” value ([7]; 125 g ai/ha) was 100 and the “phytotoxicity rating CASOB” value ([8]; 63 g ai/ha) was 0. For the same molecule, the “phytotoxicity rating CASOB” value ([8]; 125 g ai/ha) was 30, the “phytotoxicity rating AMARE” value ([9]; 63 g ai/ha) was 100 and the “phytotoxicity rating AMARE” value ([9]; 125 g ai/ha) was 100. For the same molecule, the “RICE phytotoxicity rating (crop damage)” value ([10]; 63 g ai/ha) was 25, the “RICE phytotoxicity rating (crop damage)” value ([10]; 125 g ai/ha) was 80 and the “CORN phytotoxicity rating (crop damage)” value ([11]; 63 g ai/ha) was 70. The “CORN phytotoxicity rating (crop damage)” value ([11]; 125 g ai/ha) was 90, the IPOHE phytotoxicity rating ([12]; 63 g ai/ha) was 100 and the IPOHE phytotoxicity rating ([12]; 125 g ai/ha) was 100. For the same molecule, the SORHA phytotoxicity rating ([13]; 63 g ai/ha) was 30, the SORHA phytotoxicity rating ([13]; 125 g ai/ha) was 50 and the CHEAL phytotoxicity rating ([14]; 63 g ai/ha) was 100. It also gave a CHEAL phytotoxicity rating ([14]; 125 g ai/ha) of 100, an ABUTH phytotoxicity rating ([15]; 63 g ai/ha) of 100 and an ABUTH phytotoxicity rating ([15]; 125 g ai/ha) of 100. It also gave an SETVI phytotoxicity rating ([16]; 63 g ai/ha) of 50, an SETVI phytotoxicity rating ([16]; 125 g ai/ha) of 70 and an ECHCG phytotoxicity rating ([17]; 63 g ai/ha) of 30. It also gave an ECHCG phytotoxicity rating ([17]; 125 g ai/ha) of 60, a DIGSA phytotoxicity rating ([18]; 63 g ai/ha) of 40 and a DIGSA phytotoxicity rating ([18]; 125 g ai/ha) of 50. It also gave a CASOB phytotoxicity rating ([19]; 63 g ai/ha) of 100, a CASOB phytotoxicity rating ([19]; 125 g ai/ha) of 100 and an AMARE phytotoxicity rating ([20]; 63 g ai/ha) of 100. For the same molecule, the AMARE phytotoxicity rating ([20]; 125 g ai/ha) was 100, the “phytotoxicity rating RICE (crop damage)” value ([21]; 63 g ai/ha) was 30 and the “phytotoxicity rating RICE (crop damage)” value ([21]; 125 g ai/ha) was 60. For the same molecule, the “phytotoxicity rating CORN (crop damage)” value ([22]; 63 g ai/ha) was 0 and the “phytotoxicity rating CORN (crop damage)” value ([22]; 125 g ai/ha) was 15.
